According to patent US20230397605A1, “METHODS FOR IMPROVING PLANT GROWTH AND CROP YIELD BY USING COMPOUNDS OF TRISULPHIDE OR TETRASULPHIDE” (UNIVERSITY OF IOWA RESEARCH FOUNDATION, priority 2020, published 2023):

Legend:
radish = details: cited from earlier work
peas = details: cited from earlier work
lettuce plants = details: cited from earlier work
Lettuce = assay: Growth of lettuce in nutrient-film technique hydroponic system (fresh weight of leafy head at harvest); format: in vivo, lettuce (buttercrunch); details: treatment day 42, harvest day 58, N=28 (control mean 36.13 g)
Procedure: Lettuce was grown in a nutrient-film technique hydroponic system. The seedlings were grown under LED light film with a 14 hour on time, and a 10 hour off time. The lettuce seeds were purchased from Johnny Selected Seeds. The seed variety was buttercrunch, ID 435 g. The nutrients used were Chem-Gro lettuce formula NPK with micronutrients. Calcium nitrate and magnesium sulfate were also added to the nutrients. The nutrients and the NAC-trisulfide were added to the nutrient bucket, Which was a 4 gallon bucket that recirculated the nutrient solution through the entire NFT system to bathe the roots of the lettuce plants with nutrients and water. An air stone with air pump was used in each nutrient bucket to provide aeration to the nutrient solution. […] The nutrient reservoirs were kept pH balanced and nutrient levels were kept steady. The nutrient loading measured in EC (electrical conductivity) would gradually increase as the water was consumed but would return to normal levels once water was added to return the buckets to the max volume of 4 gallons. The conductivity (EC) and pH were measured every 1 to 2 days. Nutrient was added as EC at 4 gallons would approach a value of 0.5 EC. The starting nutrient loading was 1.7 EC, The pH of the nutrient solution was balanced using phosphoric acid “pH down” solution. The pH of the nutrient solution ranged between 6.4-7.4.
The lettuce seeds were started in a separate flood tray. The seeds were sowed into an inert solid support (Oasis Horticubes) and the support absorbed water and nutrients like a sponge. The seedlings were then grown in the seeding hay for 33 days prior to transplant into the channels. At day 42. N-acteyl cysteine trisulfide (NAC trisulfide) was added to the nutrient of the lettuce plants. […]
The lettuce plants were harvested by cutting at the root boundary and discarding the roots along with the solid support. The leafy head of lettuce was then weighed to quantify the fresh weight of the lettuce reported in the graphs (see FIG. 1).

SMILES: C1COCCN1.COc1ccc(P(=S)(S)N2CCOCC2)cc1 (stereo not shown) [GYY-4137]
- harvest yield of radishes (radish; milligram loadings applied): doubled
- growth of plants (radish; radish): increased the growth
- growth of plants (peas): increased the growth
- growth of plants (lettuce plants): increased the growth

SMILES: CC(=O)N[C@@H](CSSSC[C@H](NC(C)=O)C(=O)O)C(=O)O [NAC trisulfide, N-acetyl cysteine trisulfide]
- Fresh Weight (g) Mean (Lettuce; group 2, 0.2449 g/4 gal nutrient reservoir): 42.50 g
- Fresh Weight (g) Mean (Lettuce; group 3, 0.7475 g/4 gal nutrient reservoir): 51.44 g
- Fresh Weight (g) Mean (Lettuce; group 4, 1.6112 g/4 gal nutrient reservoir): 56.07 g
